Data published in PMC9501810, “Bitter Peptides YFYPEL, [sequence], and [sequence], Released during Gastric Digestion of Casein, Stimulate Mechanisms of Gastric Acid Secretion via Bitter Taste Receptors TAS2R16 and TAS2R38” (Journal of Agricultural and Food Chemistry, 2022).
Values joined by “and” are separate entries in the source; they are usually repeats but may differ in a detail not shown here. Identical values can stand only once.

Tests used:
Format in all cases: cell-based, human
[1] = tested on: TAS2R16; assay: Proton secretion assay in TAS2R16 knock-down vs mock-transfected HGT-1 cells; conditions: TAS2R16kd vs mock-transfected HGT-1 cells, VAPFPEVF 17.5 µM, YFYPEL 0.03 µM, YQEPVLGPVRGPFPIIV 0.4 µM, 10 min, mean ± SEM; for decrease of the peptide-induced increase in proton secretion activity in TAS2R16kd cells: 72 h after 10 nM siRNA; for change of peptide-induced proton secretion, TAS2R16kd (Figure 5B–D): negative = reduction
Experimental: The measurement of proton secretion from HGT-1 cells represents a well-established model for the identification of bitter compounds. By affecting extraoral bitter taste receptors with bitter compounds, a modulatory effect on proton secretion can be measured. For this purpose, cells were washed with KRHB and incubated with 3 μM of the intracellular pH indicator 1,5 carboxy-seminaphto-rhodafluor acetoxymethyl ester (SNARF-1-AM) under standard conditions. After 30 min, the cells were washed again with KRHB and then incubated with casein (0.01–10 μM equimolar related to the relevant forms αS1- and β-casein), hydrolysate (0.01–10 μM), or the peptides (0.01–200 μM). […] All substances were dissolved and diluted in KRHB. 1 mM histamine was used as a positive control. Measurements were performed using FlexStation 3 (Molecular Devices, USA). The excitation wavelength was 488 nm, and the emission wavelengths were 580 and 640 nm. For calibration (pH range 7.0–8.0), the intracellular and extracellular pH was adjusted with 2 μM nigericin in potassium buffer (20 mM NaCl, 110 mM KCl, 1 mM CaCl2, 1 mM MgSO4, 18 mM D-glucose, and 20 mM HEPES). The intracellular proton index (IPX) was calculated as the log2 value of the 580/640 ratio and compared with cells without treatment. Negative values represent increased secretion of protons and therefore stimulation of mechanisms regulating gastric acid secretion in HGT-1 cells. In contrast, positive values represent an inhibition of secretion compared to the untreated control.
Expression of TAS2R16 and TAS2R38 was reduced by treatment of HGT-1 cells with siRNA. 100,000 cells per well were seeded 1 day before the experiment into a 24-well plate. All reagents and siRNA were purchased from Thermo Fisher Scientific, USA (cytotoxicity was excluded by MTT). Transfection was performed with Lipofectamine RNAiMAX in Opti-Medium according to the manufacturer’s protocol. 1–50 nM of different siRNA sequences (HSS121396 and HSS181763 for TAS2R16 and HSS108754 and HSS108756 for TAS2R38) and three different incubation times (24, 48, and 72 h) were tested. Mock control experiments were performed analogously with 1 or 10 nM Stealth RNAi siRNA negative control. To verify the functionality of the transfection process, verified 10 nM siRNA targeting MAPK1 (VHS40312) was used (positive control). The transfection rate was checked by qPCR as described in section 2.11. For the proton secretion assays, 20,000 cells per well were seeded 1 day before transfection into a black 96-well plate. After 72 h of transfection, proton secretion activities of TAS2R16 knock-down or TAS2R38 knock-down HGT-1 were compared with the mock transfected cells by means of ΔIPX.

[2] = tested on: TAS2R5; assay: RT-qPCR gene expression of TAS2R5 in HGT-1 cells; conditions: VAPFPEVF 17.5 µM, YFYPEL 0.03 µM, YQEPVLGPVRGPFPIIV 0.4 µM, normalized to PPIA and GAPDH and untreated cells, mean, n = 3–5
Experimental: (§1) For mRNA expression analysis, 800,000 cells were seeded in a T25 cell culture flask (25 cm^2) 1 day before the experiment. After incubation with 17.5 μM […], 0.03 μM YFYPEL, or 0.4 μM […] for 15, 30, 60, and 120 min, RNA was isolated using the peqGOLD RNA Kit (VWR Peqlab, USA) following the manufacturer’s protocol. Determination of RNA concentration (A260/A280 between 2.03 and 2.09) was performed on a NanoDrop One^c (Thermo Fisher Scientific Inc., USA). RNA integrity number (RIN 9.9–10.0, version 2.6, assay class Eukaryote Total RNA Nano) was analyzed using a 2100 Bioanalyzer (Agilent Technologies, USA). Removal of gDNA and synthesis of cDNA were performed using the iScript gDNA Clear cDNA Synthesis Kit (BioRad, Feldkirchen, Germany) following the manufacturer’s protocol. Real-time-qPCR (RT-qPCR) was performed with 50 ng cDNA amplified with SsoAdvanced Universal SYBR Green Supermix (Bio-Rad Laboratories, Inc., USA). The sequences of the forward and reverse primers of the 25 TAS2Rs were taken from Liszt et al.([13]) (Supporting Information Table-SI 3). Verified primers for the TAS1Rs (TAS1R1: qHsaCID0013443; TAS1R2: qHsaCID0016106; TAS1R3: qHsaCED0002321) and for MAPK1 (qHsaCEP0050000) were obtained from Bio-Rad Laboratories. PPIA[37] and GAPDH[38] were used as reference genes. The effects of the peptides on gene expression were analyzed in comparison to untreated control cells.

[3] = tested on: TAS2R16; assay: RT-qPCR gene expression of TAS2R16 in HGT-1 cells; conditions: VAPFPEVF 17.5 µM, YFYPEL 0.03 µM, YQEPVLGPVRGPFPIIV 0.4 µM, normalized to PPIA and GAPDH and untreated cells, mean, n = 3–5
Experimental: as §1, with “cells. […]” for “cells.”

| Substance | decrease of the peptide-induced increase in proton secretion activity in TAS2R16kd cells [1] [%] | change of peptide-induced proton secretion, TAS2R16kd (Figure 5B–D) [1] [%] | change in gene expression of TAS2R5 ([2]; incubation 15 min) [fold change] | change in gene expression of TAS2R5 ([2]; incubation 30 min) [fold change] | change in gene expression of TAS2R5 ([2]; incubation 60 min) [fold change] | change in gene expression of TAS2R5 ([2]; incubation 120 min) [fold change] | change in gene expression of TAS2R16 ([3]; incubation 15 min) [fold change] | change in gene expression of TAS2R16 ([3]; incubation 30 min) | change in gene expression of TAS2R16 ([3]; incubation 60 min) [fold change] | change in gene expression of TAS2R16 ([3]; incubation 120 min) [fold change] |
| --- | --- | --- | --- | --- | --- | --- | --- | --- | --- | --- |
| YQEPVLGPVRGPFPIIV [bitter casein peptide βA1/A2-CN193–209] | 76.6 ± 9.9 | -76.6 ±9.9 | 1.25 | 1.45 | 1.39 | 1.22 | 2.61 | 3.46 fold change and 3.46 ± 0.58 fold change | 2.50 | 3.00 |
| YFYPEL [bitter casein peptide αS1-CN144–149] | 86.3 ± 9.9 | -86.3 ±9.9 | 1.34 | 1.03 | 0.90 | 1.02 | 2.58 | 3.19 fold change and 3.19 ± 0.50 fold change | 2.44 | 2.51 |
| VAPFPEVF [bitter casein peptide αS1-CN25–32] | 77.4 ± 10.1 | -77.4 ±10.1 | 0.91 | 1.05 | 0.93 | 1.23 | 1.50 | 3.70 fold change and 3.70 ± 0.97 fold change | 1.65 | 2.88 |
